We go through 56 compounds from patent US8697694B2, “Substituted pyridine and pyrimidine derivatives and their use in treating viral infections” (priority 2008, dated 2014).

This assay deals with HCV replicon cells. Briefly: Cell-based HCV replicon assay (replicon RNA level by real time PCR, Taqman). The note with it: Hepatitis C virus, 72 h, HCV replicon cells, replicon RNA level by real time PCR (Taqman), harvested on day 3; calculated EC90 reported as range class; read-out: EC90 (μM) range. The essentials:
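HCV replicon cells treated 3 days with 10 serial 2-fold compound dilutions (top 25 μM to 1 μM; 0.5% DMSO, 10% FBS). Replicon RNA quantified by multiplex Taqman RT-PCR (NS5B amplicon, GAPDH control); EC50 and EC90 = concentrations giving ΔCT of 1 and 3.2 over baseline.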
Consider `Cc1ccccc1Nc1nc(C)c(-c2nc3ccccc3s2)c(N[C@@H]2C[C@H](CO)[C@@H](O)[C@H]2O)n1` [Example 1047], for which the EC90 was 0.5 to 5 µM.
Turning to `COCCCCNc1nc(C)c(-c2nc3ccccc3s2)c(N[C@@H]2C[C@H](CO)[C@@H](O)[C@H]2O)n1` [Example 1048], the EC90 was less than 0.5 µM.
The result for `COCCCCNc1nc(C)c(-c2nc3cnccc3s2)c(N[C@@H]2C[C@H](CO)[C@@H](O)[C@H]2O)n1` [Example 1050] reads less than 0.5 µM.
The result for `Cc1nc(Nc2ccncc2)nc(N[C@@H]2C[C@H](CO)[C@@H](O)[C@H]2O)c1-c1nc2ccccc2s1` [Example 1051] reads 0.5 to 5 µM; that for `CCOCCCCNc1nc(C)c(-c2nc3ccccc3s2)c(N[C@@H]2C[C@H](CO)[C@@H](O)[C@H]2O)n1` [Example 1052], less than 0.5 µM; that for `Cc1nc(Nc2ccc(F)cc2)nc(N[C@@H]2C[C@H](CO)[C@@H](O)[C@H]2O)c1-c1nc2cnccc2s1` [Example 1053], less than 0.5 µM.
The value for `Cc1nc(NCC2CC2)nc(N[C@@H]2C[C@H](CO)[C@@H](O)[C@H]2O)c1-c1cc2cc(OCC(C)C)nc(C)c2o1` [Example 1054] was 0.5 to 5 µM; that for `Cc1nc(NCC(F)(F)F)nc(N[C@@H]2C[C@H](CO)[C@@H](O)[C@H]2O)c1-c1cc2cc(OCC(C)C)nc(C)c2o1` [Example 1055] was 0.5 to 5 µM; that for `Cc1nc(Nc2cccc(F)c2)nc(N[C@@H]2C[C@H](CO)[C@@H](O)[C@H]2O)c1-c1nc2cnccc2s1` [Example 1056] was less than 0.5 µM.
In the case of `Cc1nc(OCC(F)(F)F)nc(N[C@@H]2C[C@H](CO)[C@@H](O)[C@H]2O)c1-c1nc2ccccc2s1` [Example 1057], the EC90 was greater than 5 µM.
The result for `OC[C@H]1C[C@@H](Nc2nc(NCC(F)(F)F)ncc2-c2nc3ccccc3s2)[C@H](O)[C@@H]1O` [Example 1058] reads 0.5 to 5 µM; that for `Cc1nc(NCC2CC2)nc(N[C@@H]2C[C@H](CO)[C@@H](O)[C@H]2O)c1-c1cc2cc(OCC3CCC3)nc(C)c2o1` [Example 1059], greater than 5 µM; that for `Cc1nc(NCC(F)(F)F)nc(N[C@H]2C[C@@H](CO)[C@H](O)[C@@H]2O)c1-c1nc2ccccc2s1` [Example 1060], greater than 5 µM.
The result for `Cc1cc2nc(-c3c(C)nc(NCC(F)(F)F)nc3N[C@@H]3C[C@H](CO)[C@@H](O)[C@H]3O)sc2cc1C` [Example 1061] reads 0.5 to 5 µM.
The value for `COCC(O)CNc1nc(C)c(-c2nc3ccccc3s2)c(N[C@@H]2C[C@H](CO)[C@@H](O)[C@H]2O)n1` (some centres unmarked) [Example 1062] was greater than 5 µM; that for `Cc1ccc2nc(-c3c(C)nc(NCC(F)(F)F)nc3N[C@@H]3C[C@H](CO)[C@@H](O)[C@H]3O)sc2c1` [Example 1063] was 0.5 to 5 µM; that for `CNc1ccc2oc(-c3c(C)nc(NCC(F)(F)F)nc3N[C@@H]3C[C@H](CO)[C@@H](O)[C@H]3O)nc2c1` [Example 1064] was greater than 5 µM.
As to `CNc1ccc2oc(-c3c(C)nc(NCC4CC4)nc3N[C@@H]3C[C@H](CO)[C@@H](O)[C@H]3O)nc2c1` [Example 1065], the EC90 was 0.5 to 5 µM.
Turning to `Cc1nc(NCCOC(F)(F)F)nc(N[C@@H]2C[C@H](CO)[C@@H](O)[C@H]2O)c1-c1nc2ccccc2s1` [Example 1066], the concentration for an effect of 90% (EC90) was less than 0.5 µM.
With `COc1cccc2sc(-c3c(C)nc(NCC4CC4)nc3N[C@@H]3C[C@H](CO)[C@@H](O)[C@H]3O)nc12` [Example 1067], the EC90 is less than 0.5 µM.
As to `COc1cccc2sc(-c3c(C)nc(N[C@H](C)c4ccc(C)cc4)nc3N[C@@H]3C[C@H](CO)[C@@H](O)[C@H]3O)nc12` [Example 1068], the EC90 was 0.5 to 5 µM.
The value for `COCCNC[C@H]1C[C@@H](Nc2nc(NCC(F)(F)F)nc(C)c2-c2nc3ccccc3s2)[C@H](O)[C@@H]1O` [Example 1069] was 0.5 to 5 µM; that for `COc1cccc2sc(-c3c(C)nc(NCC(F)(F)F)nc3N[C@@H]3C[C@H](CO)[C@@H](O)[C@H]3O)nc12` [Example 1070] was 0.5 to 5 µM; that for `CNC[C@H]1C[C@@H](Nc2nc(NCC(F)(F)F)nc(C)c2-c2nc3ccccc3s2)[C@H](O)[C@@H]1O` [Example 1071] was 0.5 to 5 µM.
The value for `COc1cccc2sc(-c3c(C)nc(NCC(F)(F)F)nc3N[C@@H]3C[C@H](C(C)O)[C@@H](O)[C@H]3O)nc12` (some centres unmarked) [Example 1072] was 0.5 to 5 µM.
The value for `COc1cccc2sc(-c3c(C)nc(NCC4CC4)nc3N[C@@H]3C[C@H](C(C)O)[C@@H](O)[C@H]3O)nc12` (some centres unmarked) [Example 1073] was 0.5 to 5 µM; that for `Cc1nc(NC(C)c2ccco2)nc(N[C@@H]2C[C@H](CO)[C@H]3OC(C)(C)O[C@H]32)c1-c1nc2ccccc2s1` (some centres unmarked) [Example 1101] was greater than 5 µM.
In the case of `Cc1nc(NC(C)c2ccco2)nc(N[C@@H]2C[C@H](CO)[C@@H](O)[C@H]2O)c1-c1nc2ccccc2s1` (some centres unmarked) [Example 1102], the concentration for an effect of 90% (EC90) was 0.5 to 5 µM.
For `Cc1nc(NCC(C)(C)C)nc(N[C@@H]2C[C@H](CO)[C@H]3OC(C)(C)O[C@H]32)c1-c1cc2cc(C(C)(C)C)ncc2o1` [Example 1103], the EC90 is greater than 5 µM.
The result for `Cc1nc(NCC(C)(C)C)nc(N[C@@H]2C[C@H](CO)[C@@H](O)[C@H]2O)c1-c1cc2cc(C(C)(C)C)ncc2o1` [Example 1104] reads greater than 5 µM; that for `Cc1nc(NCc2cccc(N(C)C)c2)nc(N[C@@H]2C[C@H](CO)[C@H]3OC(C)(C)O[C@H]32)c1-c1nc2ccccc2s1` [Example 1105], 0.5 to 5 µM.
On to `Cc1nc(NCc2cccc(N(C)C)c2)nc(N[C@@H]2C[C@H](CO)[C@@H](O)[C@H]2O)c1-c1nc2ccccc2s1` [Example 1106], for which the concentration for an effect of 90% (EC90) is less than 0.5 µM.
For the compound `COCc1cc2cc(-c3c(C)nc(NCc4ccco4)nc3N[C@@H]3C[C@H](CO)[C@H]4OC(C)(C)O[C@H]43)oc2cn1` [Example 1107], the 90% effect concentration (EC90) is 0.5 to 5 µM.
The value for `COCc1cc2cc(-c3c(C)nc(NCc4ccco4)nc3N[C@@H]3C[C@H](CO)[C@@H](O)[C@H]3O)oc2cn1` [Example 1108] was less than 0.5 µM; that for `Cc1nc(NCc2ccco2)nc(N[C@@H]2C[C@H](CO)[C@H]3OC(C)(C)O[C@H]32)c1-c1nc2ccccc2s1` [Example 1109] was 0.5 to 5 µM; that for `Cc1nc(NCc2ccco2)nc(N[C@@H]2C[C@H](CO)[C@@H](O)[C@H]2O)c1-c1nc2ccccc2s1` [Example 1110] was less than 0.5 µM.
The result for `Cc1nc(NCc2cccc(N)c2)nc(N[C@@H]2C[C@H](CO)[C@H]3OC(C)(C)O[C@H]32)c1-c1nc2ccccc2s1` [Example 1111] reads 0.5 to 5 µM; that for `Cc1nc(NCc2cccc(N)c2)nc(N[C@@H]2C[C@H](CO)[C@@H](O)[C@H]2O)c1-c1nc2ccccc2s1` [Example 1112], 0.5 to 5 µM; that for `Cc1nc(NCc2cc(Cl)cc(Cl)c2)nc(N[C@@H]2C[C@H](CO)[C@H]3OC(C)(C)O[C@H]32)c1-c1nc2ccccc2s1` [Example 1113], 0.5 to 5 µM.
The result for `Cc1nc(NCc2cc(Cl)cc(Cl)c2)nc(N[C@@H]2C[C@H](CO)[C@@H](O)[C@H]2O)c1-c1nc2ccccc2s1` [Example 1114] reads 0.5 to 5 µM.
Regarding `Cc1nc(N(C)Cc2ccccc2)nc(N[C@@H]2C[C@H](CO)[C@H]3OC(C)(C)O[C@H]32)c1-c1nc2ccccc2s1` [Example 1115], the 90% effect concentration (EC90) was greater than 5 µM.
As to `Cc1nc(N(C)Cc2ccccc2)nc(N[C@@H]2C[C@H](CO)[C@@H](O)[C@H]2O)c1-c1nc2ccccc2s1` [Example 1116], the EC90 was greater than 5 µM.
In the case of `CCCCCCNc1nc(C)c(-c2nc3ccccc3s2)c(N[C@@H]2C[C@H](CO)[C@H]3OC(C)(C)O[C@H]32)n1` [Example 1117], the 90% effect concentration (EC90) is greater than 5 µM.
The value for `Cc1nc(NCc2cccc(CN(C)C)c2)nc(N[C@@H]2C[C@H](CO)[C@H]3OC(C)(C)O[C@H]32)c1-c1nc2ccccc2s1` [Example 1118] was greater than 5 µM; that for `Cc1nc(NCc2cccc(CN(C)C)c2)nc(N[C@@H]2C[C@H](CO)[C@@H](O)[C@H]2O)c1-c1nc2ccccc2s1` [Example 1119] was 0.5 to 5 µM.
The result for `CC(C)(C)CNc1nc(CF)c(-c2nc3ccccc3s2)c(N[C@@H]2C[C@H](CO)[C@@H](O)[C@H]2O)n1` [Example 1120] reads greater than 5 µM; that for `COc1cc(CNc2nc(CF)c(-c3nc4ccccc4s3)c(N[C@@H]3C[C@H](CO)[C@@H](O)[C@H]3O)n2)cc(OC)c1` [Example 1121], 0.5 to 5 µM; that for `COc1cccc(Nc2nc(C)c(-c3nc4ccccc4s3)c(N[C@@H]3C[C@H](CO)[C@@H](O)[C@H]3O)n2)c1` [Example 1122], 0.5 to 5 µM.
The value for `COc1ccccc1Nc1nc(C)c(-c2nc3ccccc3s2)c(N[C@@H]2C[C@H](CO)[C@@H](O)[C@H]2O)n1` [Example 1123] was 0.5 to 5 µM; that for `Cc1nc(Nc2ccccc2OCc2ccccc2)nc(N[C@@H]2C[C@H](CO)[C@H]3OC(C)(C)O[C@H]32)c1-c1nc2ccccc2s1` [Example 1124] was greater than 5 µM.
With `COc1cccc(OC)c1Nc1nc(C)c(-c2nc3ccccc3s2)c(N[C@@H]2C[C@H](CO)[C@@H](O)[C@H]2O)n1` [Example 1125], the EC90 was greater than 5 µM.
The result for `COc1cc2cc(-c3c(C)nc(NCC4CC4)nc3N[C@@H]3C[C@H](CO)[C@H]4OC(C)(C)O[C@H]43)oc2c(OC)n1` [Example 1126] reads 0.5 to 5 µM; that for `COc1cc2cc(-c3c(C)nc(NCC4CC4)nc3N[C@@H]3C[C@H](CO)[C@@H](O)[C@H]3O)oc2c(OC)n1` [Example 1127], less than 0.5 µM.
The value for `COc1cccc(Nc2nc(C)c(-c3nc4ccccc4s3)c(N[C@@H]3C[C@H](CO)[C@H]4OC(C)(C)O[C@H]43)n2)c1OC` [Example 1128] was greater than 5 µM.
The value for `COc1cccc(Nc2nc(C)c(-c3nc4ccccc4s3)c(N[C@@H]3C[C@H](CO)[C@@H](O)[C@H]3O)n2)c1OC` [Example 1129] was greater than 5 µM.
Take `COc1cnccc1Nc1nc(C)c(-c2nc3ccccc3s2)c(N[C@@H]2C[C@H](CO)[C@H]3OC(C)(C)O[C@H]32)n1` [Example 1130]: the EC90 is greater than 5 µM.

As usually defined, the EC90 is the point of the concentration-response curve where the effect stands at 90%.
